Patent publication US20030212014A1 (priority 2000, published 2003)
Read-outs that look alike come from different tables or passages of the source.

Columns and labels:
[1] = tested on: liver ACC activity and malonyl CoA; assay: ACC activity and malonyl CoA in liver two hours after AICAR injection; assay type: in vivo, rat
[2] = tested on: Na+/K+ pump; assay: Radioactive rubidium uptake with and without ouabain in HUVEC; assay type: cell-based, human; conditions: 2 mM AICAR for 2 hours
Description: One of the major ATP users, the Na^+/K^+pump, was investigated. The activity of this pump was tested by measuring the uptake of radioactive rubidium in the absence and presence of ouabain, an Na^+/K^+pump inhibitor. The difference in uptake, which is referred to as ouabain-sensitive Rb^+uptake, is the Na^+/K^+pump activity. […] When the ouabain sensitive component was calculated, no ,difference was seen between the two incubations, (2.11±0.9 and 3.3±0.9 pmol/min/mg protein), thus leading us to believe that no change in Na^+/K^+pump activity had occurred. […] The AMPK activity remained high with a longer incubation time up to 120 minutes.

[3] = tested on: rats; assay: Acute effects of AICAR on blood and plasma metabolites and hormones in rats; assay type: in vivo, rat
[4] = tested on: high-fat fed (HFF) rats; assay: Acute effects of a single AICAR injection in high-fat fed (HFF) rats; assay type: in vivo, rat
Description: Plasma parameters: This experiment was performed on HFF rats under conscious conditions following 5-7 hours of fasting. After catheters were connected to blood sampling syringes, the animals were allowed to rest for 40-50 min. Two blood samples were taken 20 min. apart, constituting the basal samples (time 0). […] Blood samples were collected at 30, 60, 90 and 120 min. after the injection. After the last sample was taken, the animals were euthanized. […] Tissue parameters: The glycogen and triglyceride content of two types of skeletal muscle and liver at the end of the experiment were determined (Table 9, FIG. 27).

[5] = tested on: HUVEC; assay: Serine incorporation into ceramide in HUVEC; assay type: cell-based, human; conditions: 30 mM glucose + AICAR, 24 hr
Description: To assess whether alterations in ceramide contributed to these events, and particularly the decrease in membrane potential, we attempted to measure ceramide content. Ceramide was not detectable in HUVEC incubated with either 5 or 30 mM glucose. […] Consistent with these findings, we found no increase in serine incorporation into ceramide, (presumably a measure of de novo synthesis) in cells incubated for 24 hr in 30 vs 5 mM glucose.

[6] = tested on: rats; conditions: cited from earlier work
[7] = tested on: acetyl CoA carboxylase (ACC); assay: Acetyl CoA carboxylase activity in HUVEC incubated with AICAR; assay type: cell-based, human; conditions: 2 mM AICAR
Description: (§1) As previously mentioned, AMPK increases fatty acid oxidation in both liver and skeletal muscle by phosphorylation and inhibition of acetyl CoA carboxylase. We wanted to test if this effect of AMPK is also present in endothelial cells. […] A significant decrease was seen within the first 30 minutes of incubation (FIG. 3). ACC activity went down from 163.1±27.0 pmol/min/mg protein at 0 minutes to 61.1±1.1 at 30 minutes (P=0.004), 73.0 ±12.4 at 60 minutes and 51.2±5.0 at 120 minutes (P=0.015). As previously described, ACC activation increases malonyl CoA levels and this in turn inhibits CPT1, the enzyme responsible for the uptake of long chain fatty acyl CoA into the mitochondria where they are oxidized. […] Fatty acid oxidation was measured by the formation of titrated water (^3H2O) in cells incubated with ^3H-palmitate. A significant increase was seen only after a 2-hour incubation (P=0.002). […] (See Table 1A, FIG. 6.) Glucose and fatty acid oxidation, glucose uptake and lactate and pyruvate release were determined in the absence and presence of […] carnitine.
The results described in other tissues are seen in the endothelial cells. […] The presence of ACC is shown by the substantial increase in enzyme activity when 10 mM citrate is present vs. 0 mM citrate. Citrate allosterically activates ACC, but not other enzymes, such as propionyl CoA carboxylase and pyruvate carboxylase, which could also use HCO3^−as substrate. Thus, the increase in radioactive HCO3^−use in the presence of citrate is a reflection of ACC activity only. Similar to AMPK, the activity of ACC is lower in endothelial cells than in skeletal muscle and liver.

[8] = tested on: HUVEC; assay: HUVEC metabolism after 16 hrs incubation with 30 mM glucose; assay type: cell-based, human; conditions: 1 mM AICAR in 30 mM glucose
Description: Incubation of HUVEC with 30 mM glucose for 16 hrs decreased free fatty oxidation by 50% (FIG. 7A) and increased free fatty acid incorporation into diacylglycerol (DAG) (i.e., esterification) by 40% (FIG. 7B). These changes were accompanied by a significant decline in mitochondria membrane potential (FIG. 7C).

[9] = tested on: muscle ACC activity and malonyl CoA; assay: ACC activity and malonyl CoA in muscle two hours after AICAR injection; assay type: in vivo, rat; conditions: 250 mg/kg
[10] = tested on: HUVEC; assay type: cell-based, human
Description: as §1
To see if this also occurred in endothelial cells, glucose uptake was measured (Table 1).
In addition, lactate and pyruvate production were measured to see if the rate of glycolysis had changed.
This was not attributable to an increase in glucose oxidation. Glucose oxidation was measured by determining labeled CO2 production when the cells are incubated with ^14C-(U) glucose.
As a result their rate of oxidation can be greatly underestimated unless the tissue is prelabeled with fatty acid. […] Thus, when the HUVEC were pre-incubated with radioactive palmitate for 24 hours prior to ^14CO2 collection (to label the intracellular lipid pools), the measured rate of fatty acid oxidation was increased by 5 fold during the second hour of a two-hour incubation with radioactive palmitate added to the medium. […] (See Table 1A.)

[11] = HFF rats, 250 mg/kg s.c., vs HFF-Con

NC(=O)c1ncn([C@@H]2O[C@H](CO)[C@@H](O)[C@H]2O)c1N [AICAR, 5-aminoimidizole-4-carboxamide riboside]
dose at which maximal effect on liver ACC activity and malonyl CoA was observed [1]: 500 mg/kg | ACC activity in liver ([1]; 250 mg/kg): significantly diminished | malonyl CoA concentration in liver ([1]; 250 mg/kg): significantly diminished | ouabain-sensitive Rb+ uptake (Na+/K+ pump activity) [2]: 3.3±0.9 pmol/min/mg protein | total rubidium uptake [2]: 6.0 ±0.3 pmol/min/mg protein | blood glucose levels ([3]; 250 mg/kg, 2-6 hours following administration): moderately diminished | blood lactate ([3]; acute, high doses): increase | plasma free fatty acid (FFA) levels ([3]; acute, high doses): decrease | plasma leptin ([3]; all doses studied, at 2 hrs): did not significantly alter | plasma triglycerides ([3]; all doses studied, at 2 hrs): did not significantly alter | changes in tissue triglyceride content ([4]; 2 h after the injection): not significant | increase in glycogen content in white muscle ([4]; 2 h after the injection): 16% | reduction in liver glycogen ([4]; 2 h after the injection): 52% | duration of decrease in plasma glucose ([4]; HFF rats, 250 mg/kg s.c.): at least 60 minutes | plasma FFA ([4]; HFF rats, 250 mg/kg s.c.): remained unchanged | time to decrease in plasma glucose ([4]; HFF rats, 250 mg/kg s.c.): ≤ 30 min | plasma glucose ([4]; HFF rats, 250 mg/kg s.c., 30-120 min post-injection): decrease | plasma glycerol [4, 11]: increase | plasma triglyceride levels [4, 11]: decrease | plasma insulin ([4]; HFF rats, 250 mg/kg s.c., vs saline): decrease | serine incorporation into ceramide [5]: 9.0±1.2 | blood glucose levels ([6]; 500 mg/kg/twice daily, control and diabetic rats (U.S. Pat. No. 5,658,889)): lowers | liver size ([6]; 1000 mg/kg body weight daily for 28 days (Winder)): hepatic enlargement | muscle glycogen ([6]; 1000 mg/kg/day for 28 days (Winder et al.)): increased | ACC activity ([7]; at 30 minutes): 61.1±1.1 pmol/min/mg protein | ACC activity ([7]; at 60 minutes): 73.0 ±12.4 pmol/min/mg protein | ACC activity ([7]; at 120 minutes): 51.2±5.0 pmol/min/mg protein | decline in mitochondria membrane potential caused by 30 mM glucose [8]: prevented all these changes | decrease in free fatty acid oxidation caused by 30 mM glucose [8]: prevented all these changes | increase in free fatty acid incorporation into diacylglycerol caused by 30 mM glucose [8]: prevented all these changes | ACC activity in muscle [9]: did not depress ACC significantly | malonyl CoA levels in muscle [9]: no effect | fatty acid oxidation ([10]; 50 pM carnitine added, 3H-palmitate, 2-hour incubation): increased significantly | glucose oxidation (labeled CO2 production) ([10]; 14C-(U) glucose, after two hours): increased significantly | lactate production ([10]; AICAR incubation, 2 hours): even more obvious decrease | pyruvate production ([10]; AICAR incubation, 2 hours): slight, but significant decrease | ATP generated accounted for by fatty acid oxidation ([10]; HUVEC incubated 2 hrs in 6 mM glucose with AICAR): ~40% | fatty acid oxidation ([10]; absence of carnitine, 2 hours): did not show any changes | levels of ATP measured by bioluminescence ([10]; after AICAR incubation): rose | glucose uptake ([10]; during the AICAR incubation): decreased | calculated rate of ATP generation ([10]; no prelabeling (Table 1)): significantly diminished | ATP generated accounted for by fatty acid oxidation ([10]; second hour of two-hour incubation, 24 hours prelabeling with palmitate, with AICAR): 60%
